The values that follow come from patent publication US5710245A, “Alpha-helix mimetics and methods relating thereto” (Molecumetics, Ltd., priority 1995, dated 1998).

The nature of the data set: Circular dichroism (alpha-helicity) of peptide in water. In kind it is physicochemical. The note with it: ratio of mean residue ellipticity at 222 nm to 208 nm, 75 μM in water. The text has this:
Alpha-helicity of a peptide is typically determined by measuring its circular dichroism (CD), and CD data is normally presented as mean residue ellipticies [.THETA.]m. Alpha-helical peptides show two negative Cotton effects at 208 nm and 222 nm, and a positive Cotton effect at 193 nm, while the CD spectra of peptides with random coil secondary structure are dominated by the increasing negative Cotton effect at shorter wavelength. Alpha-helicity may be estimated from the value at 222 nm, and by comparing the negative Cotton effects at 222nm and 208nm. Increasing fraction of [.THETA.]m (222 nm) divided by [.THETA.]m(208 nm) correlates with increasing alpha-helicity. High values for [.THETA.]m(208 nm) compared to [.THETA.]m (222 nm) and a shifting minimum from 208 nm to shorter wavelengths indicate random coil conformation.
An NPY analog having the structure Ac-RAAANLITRQRY--NH2 was synthesized according to standard solid phase peptide synthetic techniques. The NPY analog was then dissolved in water at a concentration of 75 μM, and its CD measured using a JASCO J500 CD spectrometer at a temperature of both 3° C. and 25° C. Structure VI was synthesized according to Example 3, and its CD was similarly measured at both 3° C. and 25° C. (at a concentration of 75 μM).

With “Ac-RAAANLITRQRY-NH2 [NPY Analog, Ac-RAAANLITRQRY--NH2]”, the “Circular Dichroism 222/208 3° C.” value (3° C.) was determined as 0.38. Further, the “Circular Dichroism 222/208 25° C.” value (25° C.) came to 0.41.
